Test results from US20170050957A1, “4-AMINO-6-(HETEROCYCLIC)PICOLINATES AND 6-AMINO-2-(HETEROCYCLIC)PYRIMIDINE-4-CARBOXYLATES AND THEIR USE AS HERBICIDES” (Dow AgroSciences LLC, priority 2013, published 2017).
Where two headings read alike, the source gives them in different places.

Legend:
[1] = tested on: Key Broadleaf Weed and Crop Species; test: Post-emergent Test II herbicidal activity (Table 15); assay type: in vivo; details: post-emergence, 336 h, 14 d; for pest or weed control at 35 g/ha: 35 g ai/ha; for pest or weed control at 70 g/ha: 70 g ai/ha; for pest or weed control at 140 g/ha: 140 g ai/ha
In short: (§1)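 Herbicidal effect scored as percent visual injury, 14 d after post-emergent application. Spray solutions contained acetone, DMSO, isopropyl alcohol, crop oil concentrate and surfactant, applied at 187 L/ha to young plants (1-2 true leaves).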

[2] = tested on: Key Grass and Sedge Weeds as well as Grass Crops; test: Post-emergent Test II herbicidal activity (Table 16); assay type: in vivo; details: post-emergence, 336 h, 14 d; for pest or weed control at 35 g/ha: 35 g ai/ha; for pest or weed control at 70 g/ha: 70 g ai/ha; for pest or weed control at 140 g/ha: 140 g ai/ha
In short: as §1

[3] = Abutilon theophrasti, velvetleaf (Abutilon theophrasti), read-out: Visual Growth Reduction (%) 14 Days After Application, ABUTH
[4] = Amaranthus retroflexus, redroot pigweed (Amaranthus retroflexus), read-out: Visual Growth Reduction (%) 14 Days After Application, AMARE
[5] = Brassica napus, oilseed rape, canola (Brassica napus), read-out: Visual Growth Reduction (%) 14 Days After Application, BRSNN
[6] = Chenopodium album, lambsquarters (Chenopodium album), read-out: Visual Growth Reduction (%) 14 Days After Application, CHEAL
[7] = Euphorbia heterophylla, wild poinsettia (Euphorbia heterophylla), read-out: Visual Growth Reduction (%) 14 Days After Application, EPHHL
[8] = Helianthus annuus, sunflower (Helianthus annuus), read-out: Visual Growth Reduction (%) 14 Days After Application, HELAN
[9] = Cyperus esculentus, yellow nutsedge (Cyperus esculentus), read-out: Visual Growth Reduction (%) 14 Days After Application, CYPES
[10] = Echinochloa crus-galli, barnyardgrass (Echinochloa crus-galli), read-out: Visual Growth Reduction (%) 14 Days After Application, ECHCG
[11] = Oryza sativa, rice (Oryza sativa), read-out: Visual Growth Reduction (%) 14 Days After Application, ORYSA
[12] = Setaria faberi, giant foxtail (Setaria faberi), read-out: Visual Growth Reduction (%) 14 Days After Application, SETFA
[13] = Triticum aestivum, wheat, spring (Triticum aestivum), read-out: Visual Growth Reduction (%) 14 Days After Application, TRZAS
[14] = Zea mays, maize, corn (Zea mays), read-out: Visual Growth Reduction (%) 14 Days After Application, ZEAMX

Nc1cc(-c2ccc3cc[nH]c3c2F)nc(C(=O)O)c1Cl [Compound 1.24]
85 to 94%: pest or weed control at 35 g/ha [1, 3] | pest or weed control at 35 g/ha [1, 5] | pest or weed control at 35 g/ha [1, 6] | pest or weed control at 140 g/ha [1, 8]
45 to 59%: pest or weed control at 70 g/ha [1, 5] | pest or weed control at 70 g/ha [2, 12] | pest or weed control at 140 g/ha [2, 13]
30 to 44%: pest or weed control at 70 g/ha [2, 13]
60 to 74%: pest or weed control at 35 g/ha [1, 8] | pest or weed control at 140 g/ha [2, 12]
95 to 100%: pest or weed control at 70 g/ha [1, 3] | pest or weed control at 140 g/ha [1, 3] | pest or weed control at 35 g/ha [1, 4] | pest or weed control at 70 g/ha [1, 4] | pest or weed control at 140 g/ha [1, 4] | pest or weed control at 140 g/ha [1, 5] | pest or weed control at 70 g/ha [1, 6] | pest or weed control at 140 g/ha [1, 6] | pest or weed control at 35 g/ha [1, 7] | pest or weed control at 70 g/ha [1, 7] | pest or weed control at 140 g/ha [1, 7]
0 to 29%: pest or weed control at 35 g/ha [2, 9] | pest or weed control at 70 g/ha [2, 9] | pest or weed control at 140 g/ha [2, 9] | pest or weed control at 35 g/ha [2, 10] | pest or weed control at 70 g/ha [2, 10] | pest or weed control at 140 g/ha [2, 10] | pest or weed control at 35 g/ha [2, 11] | pest or weed control at 70 g/ha [2, 11] | pest or weed control at 140 g/ha [2, 11] | pest or weed control at 35 g/ha [2, 12] | pest or weed control at 35 g/ha [2, 13] | pest or weed control at 35 g/ha [2, 14] | pest or weed control at 70 g/ha [2, 14] | pest or weed control at 140 g/ha [2, 14]
75 to 84%: pest or weed control at 70 g/ha [1, 8]

COC(=O)c1nc(-c2ccc3cc[nH]c3c2F)nc(N)c1OC [Compound 1.34]
75 to 84%: pest or weed control at 35 g/ha [1, 5]
30 to 44%: pest or weed control at 140 g/ha [1, 4] | pest or weed control at 140 g/ha [2, 13]
45 to 59%: pest or weed control at 70 g/ha [1, 6]
60 to 74%: pest or weed control at 140 g/ha [1, 6] | pest or weed control at 140 g/ha [1, 7] | pest or weed control at 140 g/ha [2, 12]
85 to 94%: pest or weed control at 70 g/ha [1, 5] | pest or weed control at 35 g/ha [1, 8]
0 to 29%: pest or weed control at 35 g/ha [1, 3] | pest or weed control at 70 g/ha [1, 3] | pest or weed control at 140 g/ha [1, 3] | pest or weed control at 35 g/ha [1, 4] | pest or weed control at 70 g/ha [1, 4] | pest or weed control at 35 g/ha [1, 6] | pest or weed control at 35 g/ha [1, 7] | pest or weed control at 70 g/ha [1, 7] | pest or weed control at 35 g/ha [2, 9] | pest or weed control at 70 g/ha [2, 9] | pest or weed control at 140 g/ha [2, 9] | pest or weed control at 35 g/ha [2, 10] | pest or weed control at 70 g/ha [2, 10] | pest or weed control at 140 g/ha [2, 10] | pest or weed control at 35 g/ha [2, 11] | pest or weed control at 70 g/ha [2, 11] | pest or weed control at 140 g/ha [2, 11] | pest or weed control at 35 g/ha [2, 12] | pest or weed control at 70 g/ha [2, 12] | pest or weed control at 35 g/ha [2, 13] | pest or weed control at 70 g/ha [2, 13] | pest or weed control at 35 g/ha [2, 14] | pest or weed control at 70 g/ha [2, 14] | pest or weed control at 140 g/ha [2, 14]
95 to 100%: pest or weed control at 140 g/ha [1, 5] | pest or weed control at 70 g/ha [1, 8] | pest or weed control at 140 g/ha [1, 8]
